Test results from publication PMC5218480 (PLoS ONE, 2017).

Tested on: MV-4-11 cells
Assay: Gene expression microarray analysis (Affymetrix PrimeView) and GSEA
Assay type: cell-based, human
Parameters: RFU PODN (11730768_x_at) / Fold change /veh PODN (11730768_x_at) / RFU LINC00158 (11744669_a_at) / Fold change /veh LINC00158 (11744669_a_at) / RFU DUSP10 (11751237_a_at) / Fold change /veh DUSP10 (11751237_a_at) / RFU ID3 (11757404_x_at) / Fold change /veh ID3 (11757404_x_at) / RFU PLEKHG5 (11737974_s_at) / Fold change /veh PLEKHG5 (11737974_s_at) / RFU LRRC4B (11730491_at) / Fold change /veh LRRC4B (11730491_at) / RFU GIMAP4 (11747438_a_at) / Fold change /veh GIMAP4 (11747438_a_at) / RFU KRT8 (11758183_x_at) / Fold change /veh KRT8 (11758183_x_at) / RFU CNN1 (11734310_a_at) / Fold change /veh CNN1 (11734310_a_at) / RFU VPS37D (11726825_at) / Fold change /veh VPS37D (11726825_at) / RFU C10orf10 (11716522_x_at) / Fold change /veh C10orf10 (11716522_x_at) / RFU KIR2DL2 /// KIR2DL4 /// KIR2DL5A /// KIR2DL5B /// KIR2DS1 /// KIR2DS2 /// KIR2DS3 /// KIR2DS4 /// KIR3DL3 /// KIR3DL3 /// KIR3DS1 (11738374_at) / Fold change /veh KIR2DL2 /// KIR2DL4 /// KIR2DL5A /// KIR2DL5B /// KIR2DS1 /// KIR2DS2 /// KIR2DS3 /// KIR2DS4 /// KIR3DL3 /// KIR3DL3 /// KIR3DS1 (11738374_at) / RFU C1QL1 (11718748_at) / Fold change /veh C1QL1 (11718748_at) / RFU TMPRSS4 (11747572_a_at) / Fold change /veh TMPRSS4 (11747572_a_at) / RFU HAMP (11756126_x_at) / Fold change /veh HAMP (11756126_x_at) / RFU RNFT2 (11725882_a_at) / Fold change /veh RNFT2 (11725882_a_at) / RFU NR4A2 (11747474_a_at) / Fold change /veh NR4A2 (11747474_a_at) / RFU ABCC12 (11746883_a_at) / Fold change /veh ABCC12 (11746883_a_at) / RFU TMEM136 (11760407_x_at) / Fold change /veh TMEM136 (11760407_x_at) / RFU CLDN22 /// WWC2 (11732394_at) / Fold change /veh CLDN22 /// WWC2 (11732394_at) / RFU HLA-DPB1 (11760878_x_at) / Fold change /veh HLA-DPB1 (11760878_x_at) / RFU SPINT1 (11716480_a_at) / Fold change /veh SPINT1 (11716480_a_at) / RFU GAP43 (11754022_s_at) / Fold change /veh GAP43 (11754022_s_at) / RFU A4GNT (11735810_at) / Fold change /veh A4GNT (11735810_at) / RFU PRB3 (11715151_x_at) / Fold change /veh PRB3 (11715151_x_at) / RFU TUBB4B (11761932_at) / Fold change /veh TUBB4B (11761932_at) / RFU CAPN14 (11732068_a_at) / Fold change /veh CAPN14 (11732068_a_at) / RFU TMCC2 (11721928_a_at) / Fold change /veh TMCC2 (11721928_a_at) / RFU IRGQ (11745062_a_at) / Fold change /veh IRGQ (11745062_a_at) / RFU FAM174B (11720279_a_at) / Fold change /veh FAM174B (11720279_a_at) / RFU TMPRSS4 (11748680_a_at) / Fold change /veh TMPRSS4 (11748680_a_at) / RFU FAM212B (11763350_a_at) / Fold change /veh FAM212B (11763350_a_at) / RFU PLEKHG5 (11743358_a_at) / Fold change /veh PLEKHG5 (11743358_a_at) / RFU ZSCAN30 (11745921_a_at) / Fold change /veh ZSCAN30 (11745921_a_at) / RFU CMKLR1 (11741424_a_at) / Fold change /veh CMKLR1 (11741424_a_at) / RFU LOC101060620 /// MAPK8IP1 (11723275_at) / Fold change /veh LOC101060620 /// MAPK8IP1 (11723275_at) / RFU SPTSSB (11747773_x_at) / Fold change /veh SPTSSB (11747773_x_at) / RFU PRSS12 (11739890_at) / Fold change /veh PRSS12 (11739890_at) / RFU BIN1 (11741810_x_at) / Fold change /veh BIN1 (11741810_x_at) / RFU WNT11 (11732464_a_at) / Fold change /veh WNT11 (11732464_a_at) / RFU C10orf10 (11716521_a_at) / Fold change /veh C10orf10 (11716521_a_at) / RFU C5orf56 (11738089_at) / Fold change /veh C5orf56 (11738089_at) / RFU CYB561 (11721691_x_at) / Fold change /veh CYB561 (11721691_x_at) / RFU ANKRD19P (11752326_a_at) / Fold change /veh ANKRD19P (11752326_a_at) / RFU OR2T12 /// OR2T33 /// OR2T8 (11738714_s_at) / Fold change /veh OR2T12 /// OR2T33 /// OR2T8 (11738714_s_at) / RFU VCAN (11748164_a_at) / Fold change /veh VCAN (11748164_a_at) / RFU JSRP1 (11732532_at) / Fold change /veh JSRP1 (11732532_at) / RFU KRTAP10-11 (11738290_x_at) / Fold change /veh KRTAP10-11 (11738290_x_at) / RFU MYO3A (11730013_a_at) / Fold change /veh MYO3A (11730013_a_at) / RFU EBF3 (11725865_a_at) / Fold change /veh EBF3 (11725865_a_at) / RFU CAMK2N1 (11719241_x_at) / Fold change /veh CAMK2N1 (11719241_x_at) / RFU C5orf56 (11738088_a_at) / Fold change /veh C5orf56 (11738088_a_at) / RFU OLFML3 (11715873_a_at) / Fold change /veh OLFML3 (11715873_a_at) / RFU LOC100653217 /// NTM (11731650_a_at) / Fold change /veh LOC100653217 /// NTM (11731650_a_at) / RFU MAPK11 (11762145_a_at) / Fold change /veh MAPK11 (11762145_a_at) / RFU FIZ1 (11724087_x_at) / Fold change /veh FIZ1 (11724087_x_at) / RFU OASL (11726364_x_at) / Fold change /veh OASL (11726364_x_at) / RFU SOX15 (11748057_x_at) / Fold change /veh SOX15 (11748057_x_at) / RFU CD79A (11719716_a_at) / Fold change /veh CD79A (11719716_a_at) / RFU HIST1H1D (11736915_at) / Fold change /veh HIST1H1D (11736915_at) / RFU CASKIN2 (11723855_a_at) / Fold change /veh CASKIN2 (11723855_a_at) / RFU LOC730098 (11760151_x_at) / Fold change /veh LOC730098 (11760151_x_at) / RFU OR4N2 (11742367_at) / Fold change /veh OR4N2 (11742367_at) / RFU PRRT2 (11749266_a_at) / Fold change /veh PRRT2 (11749266_a_at) / RFU SNX32 (11753110_a_at) / Fold change /veh SNX32 (11753110_a_at) / RFU CDHR5 (11726645_a_at) / Fold change /veh CDHR5 (11726645_a_at) / RFU RCAN1 (11760418_a_at) / Fold change /veh RCAN1 (11760418_a_at) / RFU FAM167A (11723789_a_at) / Fold change /veh FAM167A (11723789_a_at) / RFU FAM26E (11764081_at) / Fold change /veh FAM26E (11764081_at) / RFU ISYNA1 (11749810_s_at) / Fold change /veh ISYNA1 (11749810_s_at) / RFU ACY1 (11761880_at) / Fold change /veh ACY1 (11761880_at) / RFU 11764098_at / Fold change /veh 11764098_at / RFU SAMD14 (11745864_x_at) / Fold change /veh SAMD14 (11745864_x_at) / RFU NPB (11741838_a_at) / Fold change /veh NPB (11741838_a_at) / RFU TMPRSS6 (11731388_a_at) / Fold change /veh TMPRSS6 (11731388_a_at) / RFU KRTAP10-2 (11738614_at) / Fold change /veh KRTAP10-2 (11738614_at) / RFU ARHGAP8 /// PRR5-ARHGAP8 (11727945_x_at) / Fold change /veh ARHGAP8 /// PRR5-ARHGAP8 (11727945_x_at) / RFU KRTAP5-7 /// NADSYN1 (11734609_at) / Fold change /veh KRTAP5-7 /// NADSYN1 (11734609_at) / RFU RASL12 (11751679_a_at) / Fold change /veh RASL12 (11751679_a_at) / RFU CDKN2B (11736163_a_at) / Fold change /veh CDKN2B (11736163_a_at) / RFU PRF1 (11729649_at) / Fold change /veh PRF1 (11729649_at) / RFU, ZNF638 /// ZNF638-IT1 / Fold change vs veh, ZNF638 /// ZNF638-IT1 / RFU, PANK3 / Fold change vs veh, PANK3 / RFU, SH3YL1 / Fold change vs veh, SH3YL1 / RFU, ZEB2 / Fold change vs veh, ZEB2 / RFU, NRIP1 / Fold change vs veh, NRIP1 / RFU, PTTG1IP / Fold change vs veh, PTTG1IP / RFU, CAPN2 / Fold change vs veh, CAPN2 / RFU, MED14 / Fold change vs veh, MED14 / RFU, SNORA58 / Fold change vs veh, SNORA58 / RFU, C1orf63 / Fold change vs veh, C1orf63 / RFU, LRRFIP1 / Fold change vs veh, LRRFIP1 / RFU, NDUFAF7 / Fold change vs veh, NDUFAF7 / RFU, SLC12A2 / Fold change vs veh, SLC12A2 / RFU, IBTK / Fold change vs veh, IBTK / RFU, ESF1 / Fold change vs veh, ESF1 / Fold change vs veh, TMEM50B / RFU, TAOK1 / Fold change vs veh, TAOK1 / RFU, ACBD3 / Fold change vs veh, ACBD3 / RFU, TMA16 / Fold change vs veh, TMA16 / RFU, RWDD3 / Fold change vs veh, RWDD3 / RFU, BCAT1 / Fold change vs veh, BCAT1 / RFU, EDEM3 / Fold change vs veh, EDEM3 / RFU, TMEM33 / Fold change vs veh, TMEM33 / RFU, WDR75 / Fold change vs veh, WDR75 / RFU, AHCTF1 / Fold change vs veh, AHCTF1 / RFU, TFRC / Fold change vs veh, TFRC / RFU, ZDHHC17 / Fold change vs veh, ZDHHC17 / RFU, NOM1 / Fold change vs veh, NOM1 / RFU, ARL8B / Fold change vs veh, ARL8B / RFU, ZBTB11 / Fold change vs veh, ZBTB11 / RFU, TAMM41 / Fold change vs veh, TAMM41 / RFU, KIAA1704 /// LOC100996395 / Fold change vs veh, KIAA1704 /// LOC100996395 / RFU, ING1 / Fold change vs veh, ING1 / RFU, TRMT61B / Fold change vs veh, TRMT61B / RFU, FUBP3 / Fold change vs veh, FUBP3 / RFU, TP53 / Fold change vs veh, TP53 / RFU, TNKS2 / Fold change vs veh, TNKS2 / RFU, ZFP14 / Fold change vs veh, ZFP14 / RFU, ACTR2 / Fold change vs veh, ACTR2 / RFU, PPP3R1 / Fold change vs veh, PPP3R1 / RFU, PIK3R1 / Fold change vs veh, PIK3R1 / RFU, HNRNPA1 / Fold change vs veh, HNRNPA1 / RFU, RNF170 / Fold change vs veh, RNF170 / RFU, ZNF28 / Fold change vs veh, ZNF28 / RFU, RNGTT / Fold change vs veh, RNGTT / RFU, OGT / Fold change vs veh, OGT / RFU, BRD1 / Fold change vs veh, BRD1 / RFU, MARS / Fold change vs veh, MARS / RFU, ZNF655 / Fold change vs veh, ZNF655 / RFU, FAHD1 / Fold change vs veh, FAHD1 / RFU, BDP1 / Fold change vs veh, BDP1 / RFU, LRRCC1 / Fold change vs veh, LRRCC1 / RFU, ARID1A / Fold change vs veh, ARID1A / RFU, ZNF146 / Fold change vs veh, ZNF146 / RFU, ZNF330 / Fold change vs veh, ZNF330 / RFU, GPN3 / Fold change vs veh, GPN3 / RFU, C9orf123 / Fold change vs veh, C9orf123 / RFU, N4BP2L2 / Fold change vs veh, N4BP2L2 / RFU, ARFIP1 / Fold change vs veh, ARFIP1 / RFU, FAM179B / Fold change vs veh, FAM179B / RFU, BCL10 / Fold change vs veh, BCL10 / RFU, UHRF1BP1L / Fold change vs veh, UHRF1BP1L / RFU, BET1 / Fold change vs veh, BET1 / RFU, CNOT2 / Fold change vs veh, CNOT2 / RFU, ZNF268 / Fold change vs veh, ZNF268 / Fold change vs veh, ZNF507 / RFU, DGCR2 / Fold change vs veh, DGCR2 / RFU, WDSUB1 / Fold change vs veh, WDSUB1 / Fold change vs veh, HSP90B1 /// MIR3652 / RFU, ADSS / Fold change vs veh, ADSS / RFU, GK / Fold change vs veh, GK / RFU, ZNF148 / Fold change vs veh, ZNF148 / RFU, TAF9 / Fold change vs veh, TAF9 / RFU, SLC1A5 / Fold change vs veh, SLC1A5 / RFU, SLMO2 / Fold change vs veh, SLMO2 / RFU, ABCC4 / Fold change vs veh, ABCC4 / RFU, LOC101060439 /// RAP1B / Fold change vs veh, LOC101060439 /// RAP1B / RFU, RFX7 / Fold change vs veh, RFX7 / RFU, GTPBP10 / Fold change vs veh, GTPBP10 / RFU, CNEP1R1 / Fold change vs veh, CNEP1R1 / RFU, BIVM-ERCC5 /// ERCC5 / Fold change vs veh, BIVM-ERCC5 /// ERCC5 / RFU, ILF3 / Fold change vs veh, ILF3 / RFU 11762660_at / Fold change /veh 11762660_at / RFU VCAN (11757783_s_at) / Fold change /veh VCAN (11757783_s_at) / RFU DDX43 (11728927_at) / Fold change /veh DDX43 (11728927_at) / RFU KRT8 (11758188_x_at) / Fold change /veh KRT8 (11758188_x_at) / RFU NKD1 (11759106_at) / Fold change /veh NKD1 (11759106_at) / RFU SRD5A1 (11742802_a_at) / Fold change /veh SRD5A1 (11742802_a_at) / RFU TPSAB1 /// TPSB2 (11721975_s_at) / Fold change /veh TPSAB1 /// TPSB2 (11721975_s_at) / RFU GSTM3 (11746129_a_at) / Fold change /veh GSTM3 (11746129_a_at) / RFU IL23R (11737362_x_at) / Fold change /veh IL23R (11737362_x_at) / RFU TMEM51 (11727254_a_at) / Fold change /veh TMEM51 (11727254_a_at) / RFU PIWIL2 (11732686_x_at) / Fold change /veh PIWIL2 (11732686_x_at) / RFU ORM1 (11744905_x_at) / Fold change /veh ORM1 (11744905_x_at) / RFU CCDC152 (11743942_at) / Fold change /veh CCDC152 (11743942_at) / RFU ECM1 (11717891_a_at) / Fold change /veh ECM1 (11717891_a_at) / RFU IL23R (11748794_a_at) / Fold change /veh IL23R (11748794_a_at) / RFU TNFAIP8L3 (11732012_x_at) / Fold change /veh TNFAIP8L3 (11732012_x_at) / RFU MBOAT4 (11741988_at) / Fold change /veh MBOAT4 (11741988_at) / RFU 11764193_at / Fold change /veh 11764193_at / RFU TMEM53 (11763286_at) / Fold change /veh TMEM53 (11763286_at) / RFU MAGEB2 (11727129_at) / Fold change /veh MAGEB2 (11727129_at) / RFU TMEM200A (11744735_a_at) / Fold change /veh TMEM200A (11744735_a_at) / RFU CCDC152 (11751479_a_at) / Fold change /veh CCDC152 (11751479_a_at) / RFU FAM211A (11726209_a_at) / Fold change /veh FAM211A (11726209_a_at) / RFU RGS16 (11746705_a_at) / Fold change /veh RGS16 (11746705_a_at) / RFU VCAN (11755009_s_at) / Fold change /veh VCAN (11755009_s_at) / RFU RHOB (11743442_s_at) / Fold change /veh RHOB (11743442_s_at) / RFU RGS16 (11720943_a_at) / Fold change /veh RGS16 (11720943_a_at) / RFU RGS16 (11720944_at) / Fold change /veh RGS16 (11720944_at) / RFU, VPS4B / Fold change vs veh, VPS4B / RFU, CREB1 / Fold change vs veh, CREB1 / RFU, DNAJC13 / Fold change vs veh, DNAJC13 / RFU, GNAQ / Fold change vs veh, GNAQ / RFU, CDK5R1 / Fold change vs veh, CDK5R1 / RFU, ZRANB3 / Fold change vs veh, ZRANB3 / RFU, CUL4A / Fold change vs veh, CUL4A / RFU, CCNY / Fold change vs veh, CCNY / RFU, UFL1 / Fold change vs veh, UFL1 / RFU, COG3 / Fold change vs veh, COG3 / RFU, DIAPH2 / Fold change vs veh, DIAPH2 / RFU, SKA2 / Fold change vs veh, SKA2 / RFU, AFF3 / Fold change vs veh, AFF3 / RFU, LMF1 / Fold change vs veh, LMF1 / RFU, IPO11 / Fold change vs veh, IPO11 / RFU, DFFB / Fold change vs veh, DFFB / RFU, FOXP1 / Fold change vs veh, FOXP1 / RFU, CARD8 / Fold change vs veh, CARD8 / RFU, STRN3 / Fold change vs veh, STRN3 / RFU, ADK / Fold change vs veh, ADK / RFU, RASSF2 / Fold change vs veh, RASSF2 / RFU, WIPF1 / Fold change vs veh, WIPF1 / RFU, LARP1B / Fold change vs veh, LARP1B / RFU, RASA1 / Fold change vs veh, RASA1 / RFU, RB1 / Fold change vs veh, RB1 / RFU, PPFIA1 / Fold change vs veh, PPFIA1 / RFU, MAT2A / Fold change vs veh, MAT2A / RFU, CCT5 / Fold change vs veh, CCT5 / RFU, WDR92 / Fold change vs veh, WDR92 / RFU, CUX1 / Fold change vs veh, CUX1 / RFU, TTC7A / Fold change vs veh, TTC7A / RFU, TMEM135 / Fold change vs veh, TMEM135 / RFU, DEPTOR / Fold change vs veh, DEPTOR / RFU, CPM / Fold change vs veh, CPM / RFU, DNAJB6 / Fold change vs veh, DNAJB6 / RFU, CACNA2D3 / Fold change vs veh, CACNA2D3 / RFU, DTX4 / Fold change vs veh, DTX4 / RFU, TFCP2 / Fold change vs veh, TFCP2 / RFU, GMCL1 /// GMCL1P1 / Fold change vs veh, GMCL1 /// GMCL1P1 / RFU, AEBP2 / Fold change vs veh, AEBP2 / RFU, SNHG1 /// SNORD22 /// SNORD25 /// SNORD26 /// SNORD27 /// SNORD28 /// SNORD29 /// SNORD31 / Fold change vs veh, SNHG1 /// SNORD22 /// SNORD25 /// SNORD26 /// SNORD27 /// SNORD28 /// SNORD29 /// SNORD31 / Fold change (Aza/veh), C12orf56 (ProbeSet 11735607_a_at) / Fold change (ACY-1035/veh), C12orf56 (ProbeSet 11735607_a_at) / Fold change (Aza/veh), FGFR1OP (ProbeSet 11751329_s_at) / Fold change (ACY-1035/veh), FGFR1OP (ProbeSet 11751329_s_at) / Fold change (Aza/veh), VPS36 (ProbeSet 11739960_a_at) / Fold change (ACY-1035/veh), VPS36 (ProbeSet 11739960_a_at) / RFU SYPL1 (11715823_x_at) / Fold change /veh SYPL1 (11715823_x_at) / RFU IGFBP7 (11715501_s_at) / Fold change /veh IGFBP7 (11715501_s_at) / RFU REEP3 (11722064_at) / Fold change /veh REEP3 (11722064_at) / RFU IGLL1 (11728026_x_at) / Fold change /veh IGLL1 (11728026_x_at): dose or concentration left out as unconfirmed
Settings: ProbeSet 11753616_s_at; LIST B

Nc1ncn([C@@H]2O[C@H](CO)[C@@H](O)[C@H]2O)c(=O)n1 [azacitidine]
RFU, ARL8B: 221.87 RFU
